14 molecules from ChEMBL document CHEMBL3608269, “Triazole-Linked Glycolipids Enhance the Susceptibility of MRSA to β-Lactam Antibiotics” (ACS Med Chem Lett, 2015) can be followed below.

Converted amounts (≈) assume the structure as drawn. The source made the active and inactive calls. The calls are words filed in the database; no cut-off is given here.

In assay [1] the test system is Staphylococcus aureus. Description: Antibacterial activity against methicillin-resistant Staphylococcus aureus ATCC 43300 after 20 to 24 hrs by CLSI method. It is filed as functional.
Assay [2] concerns Staphylococcus aureus. As to the kind of experiment: Potentiation of oxacillin-mediated antibacterial activity against methicillin-resistant Staphylococcus aureus ATCC 43300 at 32 ug/ml after 20 to 24 hrs by CLSI method. Format: functional.
The test system of assay [3] is Staphylococcus aureus. Description: Potentiation of oxacillin-mediated antibacterial activity against methicillin-resistant Staphylococcus aureus ATCC 43300 assessed as decrease in oxacillin MIC at 32 ug/ml after 20 to 24 hrs by CLSI method relative to control. Format: functional.
The test system of assay [4] is Staphylococcus aureus. Description: Antibacterial activity against methicillin-resistant Staphylococcus aureus R16 clinical isolate after 20 to 24 hrs by CLSI method. Format: functional.
Assay [5] deals with Staphylococcus aureus. As to the kind of experiment: Downregulation of mecA mRNA expression in methicillin-resistant Staphylococcus aureus ATCC 43300 at 2 ug/ml after 4 hrs by RT-PCR analysis. It is filed as functional, organism-based.
For assay [6], the system named is Staphylococcus aureus. As to the kind of experiment: Antibacterial activity against methicillin-resistant Staphylococcus aureus R15 clinical isolate after 20 to 24 hrs by CLSI method. Format: functional.
Assay [7] relates to Staphylococcus aureus. As to the kind of experiment: Antibacterial activity against methicillin-resistant Staphylococcus aureus ATCC 43300 assessed as change in bacterial surface at 2 ug/ml after 4 hrs by scanning electron microscopic analysis. It is filed as functional, organism-based.
Assay [8] concerns Staphylococcus aureus. Description: Antibacterial activity against methicillin-resistant Staphylococcus aureus R313 clinical isolate after 20 to 24 hrs by CLSI method. Format: functional.
For assay [9], the system named is Staphylococcus aureus. Description: Antibacterial activity against methicillin-resistant Staphylococcus aureus R314 clinical isolate after 20 to 24 hrs by CLSI method. It is filed as functional.
Assay [10] relates to Staphylococcus aureus. Description: Antibacterial activity against methicillin-resistant Staphylococcus aureus R304 clinical isolate after 20 to 24 hrs by CLSI method. It is filed as functional.
For assay [11], the system named is Staphylococcus aureus. As to the kind of experiment: Antibacterial activity against methicillin-resistant Staphylococcus aureus R302 clinical isolate after 20 to 24 hrs by CLSI method. Format: functional.
In assay [12] the test system is Staphylococcus aureus. As to the kind of experiment: Antibacterial activity against methicillin-resistant Staphylococcus aureus R50 clinical isolate after 20 to 24 hrs by CLSI method. Format: functional.
The test system of assay [13] is Staphylococcus aureus. Description: Antibacterial activity against methicillin-resistant Staphylococcus aureus R53 clinical isolate after 20 to 24 hrs by CLSI method. It is filed as functional.
The test system of assay [14] is Staphylococcus aureus. Description: Antibacterial activity against methicillin-resistant Staphylococcus aureus R49 clinical isolate after 20 to 24 hrs by CLSI method. It is filed as functional.
Assay [15] relates to Staphylococcus aureus. Description: Antibacterial activity against methicillin-resistant Staphylococcus aureus R308 clinical isolate after 20 to 24 hrs by CLSI method. Format: functional.
In assay [16] the test system is Staphylococcus aureus. Description: Antibacterial activity against methicillin-resistant Staphylococcus aureus R36 clinical isolate after 20 to 24 hrs by CLSI method. Format: functional.
Assay [17] has as its system Staphylococcus aureus. As to the kind of experiment: Antibacterial activity against methicillin-resistant Staphylococcus aureus ATCC 43300 assessed as growth inhibition at 2 ug/ml after 24 hrs by Epsilometer test. Format: functional, organism-based.
The subject of assay [18] is Staphylococcus aureus. Description: Antibacterial activity against methicillin-resistant Staphylococcus aureus R306 clinical isolate after 20 to 24 hrs by CLSI method. It is filed as functional.
The subject of assay [19] is Staphylococcus aureus. Description: Antibacterial activity against methicillin-resistant Staphylococcus aureus ATCC 43300 assessed as growth inhibition at 2 ug/ml measured up to 24 hrs by time kill assay. Format: functional, organism-based.

Take `CCCCCCCCCCCCCCCCO` [CETYL ALCOHOL]: the MIC – broadly, the least concentration at which growth counts as inhibited – in the assay with Staphylococcus aureus [1] was > 256 mg/L; in the assay with Staphylococcus aureus [2], > 32 mg/L.

`CCCCCCO` [1-HEXANOL]: the MIC against Staphylococcus aureus [1] was > 256 mg/L; in the assay on Staphylococcus aureus [2] it was > 32 mg/L.

As for `CCCCCCCCCCCCCCCCOCc1cn([C@@H]2O[C@H](CO)[C@H](O)[C@H](O)[C@H]2O)nn1`, the minimum inhibitory concentration (MIC) in the assay on Staphylococcus aureus [1] amounted to 256 mg/L (≈ 527 µM); in the assay with Staphylococcus aureus [2] it was 16 mg/L. The “fold change (FC)” value in the assay on Staphylococcus aureus [3] was determined as 16.

For `Cc1onc(-c2ccccc2)c1C(=O)N[C@@H]1C(=O)N2[C@@H]1SC(C)(C)[C@@H]2C(=O)O` [OXACILLIN], the MIC in the assay with Staphylococcus aureus [1] was 64 mg/L (≈ 159 µM); with Staphylococcus aureus [4], ≥ 256 mg/L; in the assay on Staphylococcus aureus [6] it was 256 mg/L (≈ 638 µM); in the assay on Staphylococcus aureus [8], 16 mg/L (≈ 39.9 µM); in the assay on Staphylococcus aureus [9] it was 512 mg/L (≈ 1280 µM); in the assay with Staphylococcus aureus [10] it was 512 mg/L (≈ 1280 µM). The MIC with Staphylococcus aureus [11] stood at 512 mg/L (≈ 1280 µM); in the assay on Staphylococcus aureus [12], 8 mg/L (≈ 19.9 µM); against Staphylococcus aureus [13], 8 mg/L (≈ 19.9 µM); in the assay on Staphylococcus aureus [14], 8 mg/L (≈ 19.9 µM); against Staphylococcus aureus [15], 1020 mg/L (≈ 2550 µM); in the assay with Staphylococcus aureus [16] it was 128 mg/L (≈ 319 µM). The molecule further displayed an MIC against Staphylococcus aureus [18] of 512 mg/L (≈ 1280 µM). Further, the outcome in the assay on Staphylococcus aureus [5] and in the assay with Staphylococcus aureus [7] was inactive. Besides, the “growth inhibition (GI)” value in the assay with Staphylococcus aureus [17] and in the assay with Staphylococcus aureus [19] was “inactive” throughout.

As to `CCCCCCCCCCCCOCc1cn([C@@H]2O[C@H](CO)[C@@H](O)[C@H](O)[C@@H]2O)nn1`, the MIC in the assay with Staphylococcus aureus [1] was 256 mg/L (≈ 596 µM); in the assay with Staphylococcus aureus [2], 4 mg/L. Further, the “fold change (FC)” value in the assay on Staphylococcus aureus [3] is on record as 64.

On to `CCCCCCCCCCO` [DECANOL], for which the results for the MIC with Staphylococcus aureus [1] and with Staphylococcus aureus [2] were > 256 mg/L and > 32 mg/L, respectively.

In the case of `CCCCCCCCCCCCCCCCCCO` [CETOSTEARYL ALCOHOL], the MIC is > 256 mg/L in the assay with Staphylococcus aureus [1] and > 32 mg/L with Staphylococcus aureus [2].

Turning to `CCCCCCCCCCCCCCCCO[C@@H]1O[C@H](CO)[C@@H](O)[C@H](O)[C@H]1O`, the MIC is > 256 mg/L with Staphylococcus aureus [1] and > 32 mg/L in the assay on Staphylococcus aureus [2].

On to `CCCCCCCCCCCCO` [DODECANOL], for which the MIC is > 256 mg/L in the assay on Staphylococcus aureus [1] and > 32 mg/L with Staphylococcus aureus [2].

Consider `CCCCCCCCCCCCCCOCc1cn([C@@H]2O[C@H](CO)[C@H](O)[C@H](O)[C@H]2O)nn1`, for which the values for the MIC in the assay on Staphylococcus aureus [1] and in the assay on Staphylococcus aureus [2] were 256 mg/L (≈ 559 µM) and 8 mg/L, respectively. For the same molecule, the “fold change (FC)” value with Staphylococcus aureus [3] worked out at 32.

Consider `CCCCCCCCO` [OCTANOL], for which the MIC in the assay with Staphylococcus aureus [1] was > 256 mg/L; with Staphylococcus aureus [2], > 32 mg/L.

As to `CCCCCCCCCCCCCCO` [MYRISTYL ALCOHOL], the results for the MIC with Staphylococcus aureus [1] and in the assay on Staphylococcus aureus [2] were > 256 mg/L and > 32 mg/L, respectively.

As to `CCCCCCCCCCCCCCO[C@@H]1O[C@H](CO)[C@@H](O)[C@H](O)[C@H]1O`, the MIC in the assay on Staphylococcus aureus [1] was > 256 mg/L; in the assay with Staphylococcus aureus [2], > 32 mg/L.

For the molecule `CCCCCCCCCCCCCCOCc1cn([C@@H]2O[C@H](CO)[C@@H](O)[C@H](O)[C@H]2O)nn1`, the MIC in the assay with Staphylococcus aureus [1] is 256 mg/L (≈ 559 µM); with Staphylococcus aureus [2] it was 4 mg/L. Besides, in the assay with Staphylococcus aureus [3], the “fold change (FC)” value was found to be 64.
